Test results taken from US7384952B2, “Pyrazolopyrimidine compound and a process for preparing the same” (Mitsubishi Tanabe Pharma Corporation, priority 2003, dated 2008).

Target: SK channel
Test: competitive apamin-binding inhibition assay (same manner as WO02/079189, Experiment 1)
Conditions: competitive binding assay against apamin, a selective SK channel blocker; read-out: apamin-binding inhibitory activity (IC50)

## CCOc1cccc(Cn2ncc3c(N4CCN(C(=O)c5ccc(N(CCN(C)C)C(=O)C6CC6)cc5)CC4)ncnc32)c1 [1-(3-ethoxybenzyl)-4-[4-[4-[N-(cyclopropyl-carbonyl)-N-[2-(dimethylamino)ethyl]amino]benzoyl]piperazin-1-yl]-1H-pyrazolo[3,4-d]pyrimidine]
  IC50: 50 nM
